Patent EP0291007A1, “Rhodanine derivative, process for preparing the same and pharmaceutical composition containing the same” (KAKEN PHARMACEUTICAL CO., LTD., priority 1987, dated 1988)
Marks after values point to notes of the source that are not given here.

Columns and labels:
[1] = test system: accumulation of sorbitol in nervous tissues; test: Inhibiting activity of the accumulation of sorbitol in nervous tissues of streptozotocin-diabetic rats; type: in vivo, SD male rats; details: single dose 48 h after streptozotocin, sciatic nerve sorbitol 5 hours after administration, mean ± spread
Protocol: After preliminary breeding SD male rats (6 weeks old) in this laboratory for 5 days, streptozotocin (made by Sigma Chemical Company) was administered intravenously (45 mg/kg body weight) to the rats to destroy β cells of Langerhans' islets in pancreas. Thus, rats suffering from diabetes were obtained.
After 48 hours from the administration of streptozotocin, the rhodanine derivative suspended in a 5 % aqueous solution of gum arabic was administered orally (100 mg/kg body weight or 25 mg/kg body weight) to the rats suffering from diabetes.
On the other hand, a 5 % aqueous solution of gum arabic having no rhodanine derivative was administered orally (5 mℓ/kg body weight) to the rats (a control group).
After 5 hours from the administration, the rats were sacrificed by the decapitation and bled to death. Immidiately, the sciatic nervous tissues of the rats were excised and frozen with dry ice. The excised sciatic nervous tissues were stored at -70°C until the sorbitol amount was measured.
After the wet weights of nervous tissues were measured, the tissues were homogenized in 1.0 mℓ of distilled water by using a homogenizer, to which 0.2 mℓ of a 4.5 % aqueous solution of barium hydroxide and 0.2 mℓ of a 5 % aqueous solution of zinc sulfate were added. The mixture was centrifuged for 10 minutes at 3,000 rpm to remove a precipitate. Ion exchange resins "Dowex 50 W" (Dow Chemical Co.) and "Duolite A-4" (Sumitomo Chemical Company, Limited.) purchased were added in small amounts to the obtained supernatant to desalt, which was recentrifuged to obtain a supernatant. To 0.5 mℓ of the extract of sorbitol were added 1.0 mt of a 50 mM glycine-sodium hydroxide buffer solution (pH 9.4) containing 0.2 mM nicotinamide adenine dinucleotide (NAD) and 50 µℓ of an enzyme solution containing 83 µg of sorbitol dehydrogenase (commercially available from BOEHRINGER MANNHEIM CORPORATION), and the mixture was reacted at room temperature for one hour. The amount of NADH formed by oxidation of sorbitol was measured by using a spectrofluorimeter and a sorbitol concentration in the extracts was measured. From the obtained results, sorbitol concentrations in nervous tissues (n mole/mg wet weight) were calculated.
A difference between the sorbitol content of the normal rat (0.12 ± 0.01 n mole/mg) and that of the rat suffering from diabetes (0.81 ± 0.06 n mole/mg) was defined as an amount of sorbitol accumulated in the tissues due to diabetes (hereinafter referred to as "sorbitol amount due to diabetes"). Also, a difference between the sorbitol content of the rat suffering from diabetes (0.81 ± 0.06 n moles/mg) and the sorbitol content of the rat suffering from diabetes which was administered the rhodanine derivative was defined as a lowering of the amount of sorbitol due to administration of the rhodanine derivative (hereinafter referred to as "lowering of sorbitol").
A lowering percentage (%) was defined as a percentage of the lowering of sorbitol to the sorbitol amount due to diabetes. The lowering percentages of the rhodanine derivatives (Compound Nos. 1-11) are shown in Table 3 (administered 100 mg/kg body weight) and Table 4 (administered 25 mg/kg body weight) with the number of rats suffering from diabetes.

[2] = test system: rats suffering from diabetes; test: Improving activity of the nerve conduction velocity in diabetic rats (tail nerve, method of Miyoshi); type: in vivo; details: 100 mg/kg body weight once daily for 2 weeks, control group 24.5 ± 1.2, normal rat 38.4 ± 2.2
Protocol: Rats suffering from diabetes for the test were prepared in the same manner as in Example 13.
From the day after the administration of streptozotocin, each of Compound Nos. 1-11 suspended in a 5 % aqueous solution of gum arabic was administrated to the rats in a dosage of 100 mg/kg body weight once daily for 2 weeks.
As the control groups, a 5 % aqueous solution of gum aratic having no rhodanine derivative was administered (5 mℓ/kg body weight) in the same manner as above to the rats.
Two weeks later, the conduction velocity of nerve of the rats was measured in accordance with the method of Miyoshi [Fukuoka Medical Jounal, 62(7), 588 to 603(1971)]. In this test, the nerves of the rats' tails were used as materials studied.
The rats were anesthetized with pentobarbital (30 to 45 mg/kg body weight, intraperitoneal administration), and then the conduction velocities of nerves were measured in a constant-temperature box having a temperature of 40°C.
The nerve of rat's tail was pricked with needle electrodes at a portion of about 1 cm from the anus (the first stimulation point) and at a portion of about 5 cm in a distal direction from the first stimulation point (the second stimulation point). Further, the segmental muscle of the rat's tail was pricked with a coaxial needle electrode at a portion of about 5 cm in a distol direction from the second stimulation point. The longitudinal nerve trunk of the rat's tail was stimulated at the first stimulation point and the second stimulation point to record action potentials of the provoked muscle.
The conduction velocity of nerve was calculated as follows: [formula]
Also, with respect to the normal rats administered with a 5 % aqueous solution of gum arabic, the conduction velocity of nerve was measured in the same manner as above.

[3] = test system: rats suffering from diabetes; test: Inhibiting activity of the progress of cataract in diabetic rats (lens opacity score by slit lamp); type: in vivo; details: 100 mg/kg body weight orally daily for 5 weeks; average lens score (0-4) of both eyes; control group 1.46 ± 0.12, normal rats 0
Protocol: Rats suffering from diabetes for the test were produced in the same manner as in Example 13.
From the day after the administration of streptozotocin, each of Compound Nos. 1-11 suspended in a 5 % aqueous solution of gum arabic was administered orally 100 mg/kg body weight daily for 5 weeks to the rats. As the control group, a 5 % aqueous solution of gum arabic having no rhodanine derivative was administered (5 mℓ/kg body weight) to the rats in the same manner as above.
After administering streptozotocin, lenses of the rats were observed by using a slit lump (commercially available from KOWA Co., Ltd. under a trade name "Kowa SL-2") every second or third day for 5 weeks, sufficiently keeping the lenses mydriasis with a mydriatic (commercially available from Santen Pharmaceutical Co., Ltd. under the trade name "MYDRIN-P".
The opaqueness of the lenses was estimated according to the following criteria. Score 0: There was no change in the lenses. […] Score 3: Opacity was observed over the whole of lens' surface and the fundus oculi was not seen as if projected through the lens. Score 4: The nucleus lentis became opaque.
Also, with respect to the normal rats administered with a 5 % aqueous solution of gum arabic, the opaqueness were estimated in the same manner as above.

[4] = test system: accumulation of galactitol in red blood cells; test: Inhibiting activity of the accumulation of galactitol in red blood cells of galactose-fed dogs; type: in vivo, beagle dogs; details: 10 mg/kg body weight orally once daily for 3 days; blood 10 hours after galactose 15 g/kg; control group 125 ± 10
Protocol: Each of Compound Nos. 1-11 was administered orally in a dosage of 10 mg/kg body weight once daily for 3 days with a capsule (administration time: 9 a.m. to 9:30 a.m.) to a male or female beagle dogs (body weight: from 8 to 12 kg). As the control group, the dogs were administered with vacant capsules in the same manner as above. Dog foods containing galactose in an amount of 15 g/kg body weight were given to the dogs immediately after the final administration of the capsule. The dogs completely had eaten the dog foods for 5 to 10 minutes. The blood was collected from the cephalic vein of the dog using heparine sodium after 10 hours from the administration of galactose. The collected blood was centrifuged to give red blood cells. The obtained red blood cells were washed twice with a cold physiological saline solution and were hemolysed in distilled water having an equal volume to the red blood cells.
After removing protein from the obtained solution, the resulting solution was treated with ion exchange resins, "Dowex 50 W" and "Duolite A-4", desalted and lyophilized. After subjecting to the pre-treatment of galactitol with trimethyl silyl ether (TMS), the amount of galactitol accumulated in the red blood cells was measured by a gas chromatography.

Acute toxicity in mice = type: in vivo; details: mouse, in vivo; oral, mice observed for 2 weeks; read-out: LD₅₀ (oral)
Text: (§1) The acute toxicity in mice was examined by using the rhodanine derivatives of compound Nos. 1, 2, 5, 7 and 10.

male ddY mice = test: Acute toxicity in mice; type: in vivo; details: oral, up to a dose of 2,000 mg/kg body weight, observed for 2 weeks
Text: as §1

SMILES	Lowering percentage (%) ([1]; 25 mg/kg body weight orally)	Lowering percentage (%) ([1]; 100 mg/kg body weight orally)	Conduction velocity of nerve (m/sec) [2]	Opaqueness [3]	Amount of galactitol in red blood cells (ng/g hemoglobin) [4]	LD50 at 336 h (Acute toxicity in mice)	dead mice (male ddY mice)
CCCC(CC)C1SC(=S)N(CC(=O)O)C1=O (stereo not shown) [Compound No. 5, 3-Carboxymethyl-5-(1-ethylbutyl)rhodanine]	15.2 ± 2.1 %	30.9 ± 8.8*^1%	32.4 ± 2.8 m/sec	0.92 ± 0.10	94 ± 7 ng/g hemoglobin	> 2000 mg/kg	no dead mice were observed
CCC(CC)CC1SC(=S)N(CC(=O)O)C1=O (stereo not shown) [Compound No. 10, 3-Carboxymethyl-5-(2-ethylbutyl)rhodanine]	18.2 ± 2.0 %	42.9 ± 7.6*^2%	34.1 ± 4.3 m/sec	0.74 ± 0.12	90 ± 10 ng/g hemoglobin	> 2000 mg/kg	no dead mice were observed
CCC(C)CC1SC(=S)N(CC(=O)O)C1=O (stereo not shown) [Compound No. 9, 3-Carboxymethyl-5-(2-methylbutyl)rhodanine]	19.0 ± 3.5 %	49.9 ± 6.9*^2%	33.6 ± 2.6 m/sec	0.72 ± 0.11	69 ± 10 ng/g hemoglobin		
CC(C)CCC1SC(=S)N(CC(=O)O)C1=O (stereo not shown) [Compound No. 8, 3-Carboxymethyl-5-(3-methylbutyl)rhodanine]	12.2 ± 1.8 %	23.0 ± 6.2*^1%	35.2 ± 1.5 m/sec	0.89 ± 0.10	72 ± 11 ng/g hemoglobin		
CC(C)C(C)C1SC(=S)N(CC(=O)O)C1=O (stereo not shown) [Compound No. 2, 3-Carboxymethyl-5-(1,2-dimethylpropyl)-rhodanine]	36.5 ± 4.7 %	68.2 ± 10.6*^3%	36.6 ± 2.7 m/sec	0.61 ± 0.07	66 ± 5 ng/g hemoglobin	> 2000 mg/kg	no dead mice were observed
CCC(CC)C1SC(=S)N(CC(=O)O)C1=O (stereo not shown) [Compound No. 1, 3-Carboxymethyl-5-(1-ethylpropyl)rhodanine]	19.8 ± 3.2 %	51.5 ± 4.8*^3%	36.2 ± 3.4 m/sec	0.98 ± 0.06	82 ± 6 ng/g hemoglobin	> 2000 mg/kg	no dead mice were observed
O=C(O)CN1C(=O)C(CC2CCCCC2)SC1=S (stereo not shown) [Compound No. 11, 3-Carboxymethyl-5-cyclo-hexylmethylrhodanine]	13.0 ± 2.9 %	27.7 ± 1.6*^1%	31.8 ± 1.3 m/sec	0.90 ± 0.13	87 ± 13 ng/g hemoglobin		
CCC(CCCl)C1SC(=S)N(CC(=O)O)C1=O (stereo not shown) [Compound No. 3, 3-Carboxymethyl-5-(1-ethyl-3-chloropropyl)-rhodanine]	34.0 ± 6.2 %	62.4 ± 9.4*^3%	34.2 ± 1.8 m/sec	0.55 ± 0.06	57 ± 12 ng/g hemoglobin		
CCCC(CCC)C1SC(=S)N(CC(=O)O)C1=O (stereo not shown) [Compound No. 6, 3-Carboxymethyl-5-(1-propylbutyl)rhodanine]	16.1 ± 3.2 %	28.4 ± 7.4*^1%	33.0 ± 3.1 m/sec	0.90 ± 0.12	86 ± 12 ng/g hemoglobin		
CC(CCCCl)C1SC(=S)N(CC(=O)O)C1=O (stereo not shown) [Compound No. 4, 3-Carboxymethyl-5-(1-methyl-4-chlorobutyl)-rhodanine]	32.2 ± 4.4 %	60.1 ± 7.3*^3%	37.0 ± 3.5 m/sec	0.68 ± 0.09	59 ± 6 ng/g hemoglobin		
